Measurements published in US6368552B1, “Water treating agent and water treating method” (Kurita Water Industries Ltd., priority 1999, dated 2002).

Legend:
[1] = Autoclave test of transference of the chemical from liquid water phase to steam phase at 200° C. (gas chromatography); assay type: physicochemical; conditions: autoclave 200° C.; for Conc. of chemical in water / Conc. of chemical in steam: 200 mg/liter aqueous solution, pH 11.5 with sodium hydroxide; for Conc. of chemical in water: liquid phase sample; for Conc. of chemical in steam: steam phase sample
Experimental: Each 50 ml of samples were taken from the steam phase and from the liquid phase directly after the temperature had reached at 200° C., which were analyzed for the concentration of the chemical on a gas chromatography. The ratio of the concentration of chemical in the steam phase versus the concentration of chemical in the liquid phase was calculated.

[2] = Removal of dissolved oxygen by potassium erysorbate at 60° C., 10 minutes; conditions: 100 mg potassium erysorbate per liter, pH of test soln. as in row (6.5-10.5)
Experimental: In a constant temperature bath held at 60° C., one liter of deionized water of a pH of 6.5 was stirred for one hour so as to saturate it with atmospheric oxygen and the oxygen concentration was measured by a dissolved oxygen meter (MOCA 3600 of the firm Orbisphere Laboratories). 100 mg of potassium erysorbate were added to the water and the mixture was agitated sufficiently, before the solution was poured into a 200 ml incubation bottle to fill it completely therewith, whereupon a closure stopper was fitted into the bottle so as to exclude any rest of gas space therein and the bottle was returned to the constant temperature bath of 60° C. to subject the solution to reaction for 10 minutes. After 10 minutes, the bottle was taken out of the bath and the dissolved oxygen concentration therein was detected by the dissolved oxygen meter. The rate of removal of dissolved oxygen is calculated from the proportion of the dissolved oxygen concentration after the addition of potassium erysorbate versus the dissolved oxygen concentration before the addition of potassium erysorbate (Comparative Example 15).
Test solutions were prepared from each one liter of deionized water by adjusting the pH thereof at 7.5, 9.0 and 10.5, respectively, by adding sodium hydroxide thereto as alkali reagent. […]

Conc. of chemical in water [1] [µg/mL]	Conc. of chemical in steam [1] [µg/mL]	Conc. ratio Cs/Cw (concentration in the steam phase/concentration in liquid water phase) ([1]; pH 11.5)	Transference from the liquid water phase to the steam phase [1]	SMILES	Converted into gluconic acid (with some decomposition into other compounds) ([1]; liquid water phase, pH 11.5)	Rate of O2 remov. [2] [%]
187	120	0.64		CCCCCCC1CCC(=O)O1 (stereo not drawn) [Example 2, γ-decalactone]		
184	418	2.27		C=CCc1ccc(O)c(OC)c1 [Example 4, Eugenol]		
186	453	2.44		CC=Cc1ccc(O)c(OC)c1 [Example 5, Isoeugenol]		
<1	<1	<0.01	almost no transference	O=C1O[C@H](CO)[C@@H](O)[C@H](O)[C@H]1O [compound 1, glucono-δ-lactone, reference compound]	*2) Converted into 173 mg/l of gluconic acid with some decomposition into other compounds.	
				O=C1O[C@H]([C@H](O)CO)C([O-])=C1O.[K+] [compound 15, potassium erysorbate]		30.1

SMILES	Conc. of chemical in water [1] [µg/mL]	Conc. of chemical in steam [1] [µg/mL]	Conc. ratio Cs/Cw (concentration in the steam phase/concentration in liquid water phase) ([1]; pH 11.5)	Transference from the liquid water phase to the steam phase [1]	Converted into gluconic acid (with some decomposition into other compounds) ([1]; liquid water phase, pH 11.5)	Rate of O2 remov. [2] [%]
CCCCCC1CCC(=O)O1 (stereo not drawn) [Example 1, γ-nonalactone]	188	207	1.10			
